# Experimental data taken from US9782385B2, “Artificial tears solution combination” (National Health Research Institutes, priority 2015, dated 2017).
# What was measured:
# [1] = system: inflammatory cytokines (IL-1β, IL-6, IL-8, and TNF-α); assay: Gene expression experiment for inflammatory cytokines (Q-PCR) in LPS-induced HCEC; type: cell-based, Human; conditions: LPS 500 ng/ml induced HCEC, 2 hours with test material; compared with the other groups
# Experimental: In this experiment, firstly, cultivate the Human Corneal Epithelial Cells (HCEC) for 48 hours, then utilize Lipopolysaccharide (LPS) at concentration of 500 ng/ml to induce HCEC for 3 hours, to make it to produce inflammatory reaction. Afterwards, add in the compound of EGCG and HA to cultivate with HCEC for 2 hours. The Gene Expression Experiment to evaluate Inflammatory cytokines was conducted for 3 days, and the samples for this experiment were obtained by collecting these cells on the third day. Firstly, utilize Trizol reagent to extract Ribonucleic Acid (RNA) of these cells, and then utilize the High-Capacity cDNA Reverse Transcription Kits made by manufacturer ABi to perform Reverse Transcription […] (RT-PCR), to synthesis the complementary deoxyribonucleic acid (cDNA). Subsequently, utilize the TagManR Fast Universal Master Mix (2X) made by manufacturer ABi, to perform Quantitative Real-Time PCR (Q-PCR) on the inflammatory cytokines (IL-1β, IL-6, IL-8, and TNF-α), to detect the gene expression of the inflammation cytokines (IL-1β, IL-6, IL-8, and TNF-α).
# [2] = system: inflammation cytokines (IL-1β, IL-6, IL-8, and TNF-α); assay: Inflammation cytokines protein expression experiment (ELISA of cornea protein); type: in vivo; conditions: rabbit, BAC-induced dry eye, treatment twice a day for 2 weeks
# Source text: In this experiment, firstly, a Benzalkonium Chloride (BAC) is dipped onto the eyes of a rabbit 3 times a day for 3 weeks, to induce the rabbit eyes to produce inflammation, and to cause it to have symptoms of moderate dry eye syndrome. Then, utilize various combined compounds of artificial tear solution, HA, and EGCG to proceed with treatments, twice a day for 2 weeks. Then, extract the protein from the rabbit's cornea to perform Enzyme-Linked Immunosorbent Assay (ELISA), to detect the protein expression of the inflammation cytokines (IL-1β, IL-6, IL-8, and TNF-α), and to observe and determine whether the inflammation cytokines were reduced, through treatment of various compounds of artificial tear solution, HA, and EGCG
structure (smiles),measurement,setting,value
"O=C(O[C@@H]1Cc2c(O)cc(O)cc2O[C@@H]1c1cc(O)c(O)c(O)c1)c1cc(O)c(O)c(O)c1 [EGCG, Epigallocatechin gallate]","Relative Transcription Ratios of the 4 inflammation factors (IL-1β, IL-6, IL-8, TNF-α)",[1],does have anti-inflammatory effect
same,"concentration of inflammatory cytokines (IL-1β, IL-6, IL-8, and TNF-α) in cornea",[2],has the anti-inflammatory effect
